Consider 3 compounds from US11540981B2, “Nanoemulsion formulation with improved stability and cell penetration” (BIOFRONTERA BIOSCIENCE GMBH, priority 2006, dated 2023).

For data set [1] the following is noted: 25° C.; cited from earlier work.
The conditions of data set [2]: high concentrations required for clinical application, neutral to basic pH range; cited from earlier work.
Data set [3] is described as follows: Phase II clinical study: pharmacokinetic assessment of systemic plasma and urine levels. As to conditions: ALA-treated patients, compared with naturally occurring physiological values in the same individuals.

For `CCO` [ethanol], in data set [1], the viscosity is recorded as 1.10 cp.

Regarding `NCC(=O)CCC(=O)O` [ALA, 5-aminolevulinic acid], in data set [2], the “stability in aqueous solutions” value is “unstable”. Besides, in data set [3], the “plasma concentrations of ALA and its metabolite protoporphyrin IX” value is on record as “not increased”; the “urine concentrations of ALA and its metabolite protoporphyrin IX” value is on record as “not increased”.

Consider `CC(C)O` [isopropanol], for which the viscosity in data set [1] was 2.32 cp.
